Assay results taken from patent US10953027B2, “Active agents and methods of their use for the treatment of metabolic disorders and nonalcoholic fatty liver disease” (Flagship Pioneering Innovations V, Inc., priority 2018, dated 2021).

Experiments:
Format in all cases: in vitro ADME
[1] = Assay 3. Fecal Incubation Stability; conditions: 1 or 10 μM, human fecal slurry, anaerobic
Description: Assay 3. Fecal Incubation Stability. This assay was used to assess the stability of an acylated active agent in a large intestine. All experiments were performed in an anaerobic chamber containing 90% nitrogen, 5% hydrogen and 5% carbon dioxide. Human fecal matter in a slurry (15% WV) is added to 96 well plates containing YCFA media or other suitable media (1.6 mL). Compounds were added to each individual well to reach a final analyte concentration of 1 or 10 μM, and the material was mixed by pipetting. At set time points a sample was removed, quenched with acetonitrile, and analyzed by LC/MS.

[2] = Assay 2. Stability in Simulated Intestinal Fluid (SIF); conditions: 1 μM, 37° C., SIF pH 6.7 with pancreatin
How it was run: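 Degradation rate measured by LC/MS after acetonitrile quench of timed aliquots, starting at T0. Test compound 1 μM in simulated intestinal fluid (pH 6.7 phosphate buffer, FaSSIF powder, pancreatin), shaken at 37 °C.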

[3] = Assay 1. Stability in Simulated Gastric Fluid (SGF); conditions: 1 μM, 37° C., SGF pH 1.6 with pepsin
How it was run: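 Simulated gastric fluid, prepared fresh as NaCl buffer at pH 1.6 with 0.1 mg/mL pepsin and FaSSIF powder, received test compound to 1 μM final and was held at 37 °C. LC/MS of acetonitrile-quenched samples, taken immediately and then periodically, gave degradation rates.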

SMILES	Assay 3 (% Remaining at 24 h) [1]	Assay 2 (SIF) (% @ Remaining 4 hours) [2]	Assay 1 (SGF) (% Remaining @ 1 hours) [3]
CCC(=O)O[C@H]1[C@H](OC(=O)CCc2c[nH]c3ccccc23)OC[C@@H](OC(=O)CC)[C@H]1OC(=O)CC [Compound 130, (2S,3R,4R,5R)-3,4,5-tris(propanoyloxy)oxan-2-yl 3-(1H-indol-3-yl)propanoate]	A (A: <25% of the tested compound remaining)	A (A: <25% of the tested compound remaining)	B (B: 25-75% of the tested compound remaining)
CCC(=O)O[C@@H]1[C@@H](OC(=O)CC)[C@H](OC(=O)/C=C/c2c[nH]c3ccccc23)OC[C@H]1OC(=O)CC [Compound 123, (2S,3R,4S,5R)-3,4,5-tris(propanoyloxy)oxan-2-yl (2E)-3-(1H-indol-3-yl)prop-2-enoate]	A (A: <25% of the tested compound remaining)	A (A: <25% of the tested compound remaining)	C (C: >75% of the tested compound remaining)
O=C(Cc1c[nH]c2ccccc12)Oc1cc(C(=O)O)cc(OC(=O)Cc2c[nH]c3ccccc23)c1OC(=O)Cc1c[nH]c2ccccc12 [Compound 237, 3,4,5-tris({[2-(1H-indol-3-yl)acetyl]oxy})benzoic Acid]	A (A: <25% of the tested compound remaining)	A (A: <25% of the tested compound remaining)	C (C: >75% of the tested compound remaining)
CCC(=O)Oc1cc(C(=O)O)cc(OC(=O)CC)c1OC(=O)CC [Compound 239, 3,4,5-tris(propanoyloxy)benzoic Acid]	A (A: <25% of the tested compound remaining)	A (A: <25% of the tested compound remaining)	C (C: >75% of the tested compound remaining)
O=C(CCc1c[nH]c2ccccc12)O[C@@H]1OC[C@H](OC(=O)CCc2c[nH]c3ccccc23)[C@H](OC(=O)CCc2c[nH]c3ccccc23)[C@H]1OC(=O)CCc1c[nH]c2ccccc12 [Compound 102, (2S,3R,4S,5S)-3,4,5-tris({[3-(1H-indol-3-yl)propanoyl]oxy})oxan-2-yl 3-(1H-indol-3-yl)propanoate]	A (A: <25% of the tested compound remaining)	A (A: <25% of the tested compound remaining)	B (B: 25-75% of the tested compound remaining)
CCC(=O)O[C@@H]1[C@@H](OC(=O)CC)[C@@H](OC(=O)CCc2c[nH]c3ccccc23)OC[C@@H]1OC(=O)CC [Compound 158, (2R,3R,4S,5S)-3,4,5-tris(propanoyloxy)oxan-2-yl 3-(1H-indol-3-yl)propanoate]	A (A: <25% of the tested compound remaining)	A (A: <25% of the tested compound remaining)	C (C: >75% of the tested compound remaining)
CCCC(=O)Oc1ccc(-c2cc(=O)c3c(OC(=O)CCC)cc(OC(=O)CCC)cc3o2)cc1 [Compound 201, 5-(butanoyloxy)-2-[4-(butanoyloxy)phenyl]-4-oxo-4H-chromen-7-yl Butanoate]	A (A: <25% of the tested compound remaining)	A (A: <25% of the tested compound remaining)	B (B: 25-75% of the tested compound remaining)
CCC(=O)O[C@@H]1[C@@H](OC(=O)CC)[C@@H](OC(=O)CC)C(O)O[C@H]1C (stereo partly drawn) [Compound 145, (3R,4R,5S,6S)-2-hydroxy-6-methyl-4,5-bis(propanoyloxy)oxan-3-yl Propanoate]	C (C: >75% of the tested compound remaining)	A (A: <25% of the tested compound remaining)	C (C: >75% of the tested compound remaining)
CO[C@H]1O[C@H](COC(C)=O)[C@@H](OC(C)=O)[C@H](OC(C)=O)[C@@H]1OC(C)=O [Compound 193, (2R,3R,4S,5S,6S)-2-(acetoxymethyl)-6-methoxytetrahydro-2H-pyran-3,4,5-triyl Triacetate]	B (B: 25-75% of the tested compound remaining)	C (C: >75% of the tested compound remaining)	C (C: >75% of the tested compound remaining)
CCCC(=O)Oc1cc(OC(=O)CCC)c2c(c1)O[C@H](c1cc(OC(=O)CCC)c(OC(=O)CCC)c(OC(=O)CCC)c1)[C@H](OC(=O)c1cc(OC(=O)CCC)c(OC(=O)CCC)c(OC(=O)CCC)c1)C2 [Compound 3, [(2R,3R)-5,7-di(butanoyloxy)-2-[3,4,5-tri(butanoyloxy)phenyl]chroman-3-yl] 3,4,5-tri(butanoyloxy)benzoate]	C (C: >75% of the tested compound remaining)	C (C: >75% of the tested compound remaining)	C (C: >75% of the tested compound remaining)
CCC(=O)O[C@@H]1[C@@H](OC(=O)CC)[C@H](OC)OC[C@H]1OC(=O)CC [Compound 106, (2R,3R,4S,5R)-2-methoxy-4,5-bis(propanoyloxyoxan-3-yl Propanoate]	A (A: <25% of the tested compound remaining)	A (A: <25% of the tested compound remaining)	C (C: >75% of the tested compound remaining)
CCCC(=O)Oc1cc(OC(=O)CCC)c2c(c1)O[C@H](c1ccc(OC(=O)CCC)c(OC(=O)CCC)c1)[C@H](OC(=O)CCC)C2 [Compound 235, (2R,3R)-2-[3,4-bis(butanoyloxy)phenyl]-5,7-bis(butanoyloxy)-3,4-dihydro-2H-1-benzopyran-3-yl Butanoate]	A (A: <25% of the tested compound remaining)	A (A: <25% of the tested compound remaining)	C (C: >75% of the tested compound remaining)
CCCC(=O)O[C@@H]1[C@@H](OC(=O)CCC)[C@H](Oc2ccccc2C(=O)O)OC[C@H]1OC(=O)CCC [Compound 227, 2-{[(2S,3R,4S,5R)-3,4,5-tris(butanoyloxy)oxan-2-yl]oxy}benzoic Acid]	A (A: <25% of the tested compound remaining)	A (A: <25% of the tested compound remaining)	C (C: >75% of the tested compound remaining)
C[C@@H]1CCO[C@](C)(C(=O)Oc2ccc(/C=C/c3cc(OC(=O)[C@@]4(C)OCC[C@@H](C)O4)cc(OC(=O)[C@@]4(C)OCC[C@@H](C)O4)c3)cc2)O1 [Compound 257, 3-[(2S,4R)-2,4-dimethyl-1,3-dioxane-2-carbonyloxy]-5-[(1E)-2-{4-[(2S,4R)-2,4-dimethyl-1,3-dioxane-2-carbonyloxy]phenyl}ethenyl]phenyl (2S,4R)-2,4-dimethyl-1,3-dioxane-2-carboxylate]	A (A: <25% of the tested compound remaining)	A (A: <25% of the tested compound remaining)	C (C: >75% of the tested compound remaining)
CCC(=O)OC[C@H]1O[C@H](OC)[C@H](OC(=O)CC)[C@@H](OC(=O)CC)[C@H]1OC(=O)CC [Compound 90, [(2R,3S,4S,5R,6S)-6-methoxy-3,4,5-tris(propanoyloxy)oxan-2-yl]methyl Propanoate]	A (A: <25% of the tested compound remaining)	A (A: <25% of the tested compound remaining)	C (C: >75% of the tested compound remaining)
CCC(=O)O[C@@H]1[C@@H](OC(=O)CC)[C@@H](OC(=O)Cc2c[nH]c3ccccc23)OC[C@H]1OC(=O)CC [Compound 149, (2R,3R,4S,5R)-2-{[2-(1H-indol-3-yl)acetyl]oxy}-4,5-bis(propanoyloxy)oxan-3-yl Propanoate]	A (A: <25% of the tested compound remaining)	A (A: <25% of the tested compound remaining)	C (C: >75% of the tested compound remaining)
CO[C@H]1OC[C@@H](OC(C)=O)[C@H](OC(C)=O)[C@H]1OC(C)=O [Compound 46, (2S,3R,4S,5R)-2-methoxytetrahydro-2H-pyran-3,4,5-triyl Triacetate]	B (B: 25-75% of the tested compound remaining)	B (B: 25-75% of the tested compound remaining)	C (C: >75% of the tested compound remaining)
CCC(=O)O[C@@H]1[C@@H](OC(=O)CC)[C@@H](OC)OC[C@H]1OC(=O)CC [Compound 105, (2S,3R,4S,5R)-2-methoxy-4,5-bis(propanoyloxy)oxan-3-yl Propanoate]	A (A: <25% of the tested compound remaining)	B (B: 25-75% of the tested compound remaining)	C (C: >75% of the tested compound remaining)
CCC(=O)O[C@H]1[C@H](OC(=O)CC)[C@@H](OC(=O)CCc2c[nH]c3ccccc23)O[C@@H](C)[C@H]1OC(=O)CC [Compound 110, (2R,3S,4R,5R,6S)-6-methyl-3,4,5-tris(propanoyloxy)oxan-2-yl 3-(1H-indol-3-yl)propanoate]	A (A: <25% of the tested compound remaining)	C (C: >75% of the tested compound remaining)	C (C: >75% of the tested compound remaining)
